PubChem BioAssay AID256 (DTP/NCI, 2004)
Values joined by “and” are separate entries in the source; they are usually repeats but may differ in a detail not shown here. Identical values can stand only once. Toxic doses and inconclusive results are not listed. The calls were made as follows: active = survival T/C of 150% or more; inactive = T/C below 125% in these data.

Tested on: CD2F1 mice, L1210 leukemia ip, survival T/C
Test: NCI In Vivo Anticancer Drug Screen. Data for tumor model L1210 Leukemia (intraperitoneal) in CD2F1 (CDF1) mice
Settings: higher = longer survival
How it was run: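 Activity against a transplanted murine tumor was judged by comparing the compound group with a vehicle group. The outcome in the treated animals was divided by that in the controls.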

[1] = endpoint: mean survival time, dose: 6.25 mg/kg/injection, schedule: Q04DX003 (ip), vehicle: saline with Tween-80
[2] = endpoint: mean survival time, dose: 100.0 mg/kg/injection, schedule: Q01DX009 (ip), vehicle: saline with Tween-80
[3] = endpoint: mean survival time, dose: 200.0 mg/kg/injection, schedule: Q01DX009 (ip), vehicle: saline with Tween-80
[4] = endpoint: mean survival time, dose: 400.0 mg/kg/injection, schedule: Q01DX009 (ip), vehicle: saline with Tween-80
[5] = endpoint: mean survival time, dose: 100.0 mg/kg/injection, schedule: Q04DX002 (ip), vehicle: saline with Tween-80
[6] = endpoint: mean survival time, dose: 200.0 mg/kg/injection, schedule: Q04DX002 (ip), vehicle: saline with Tween-80
[7] = endpoint: mean survival time, dose: 100.0 mg/kg/injection, schedule: Q04DX003 (ip), vehicle: saline with Tween-80
[8] = endpoint: mean survival time, dose: 200.0 mg/kg/injection, schedule: Q04DX003 (ip), vehicle: saline with Tween-80
[9] = endpoint: mean survival time, dose: 400.0 mg/kg/injection, schedule: Q04DX003 (ip), vehicle: saline with Tween-80

Measured: T/C

Nc1ccc2ccccc2c1N=Nc1ccc(C(O)C(N)CO)cc1 (stereo not drawn)
inactive: [1] 100 % of control | endpoint: mean survival time, dose: 12.5 mg/kg/injection, schedule: Q04DX003 (ip), vehicle: saline with Tween-80 96 % of control | endpoint: mean survival time, dose: 25.0 mg/kg/injection, schedule: Q04DX003 (ip), vehicle: saline with Tween-80 94 % of control

O=C(O)CC(C(=O)O)c1ccc([N+](=O)[O-])cc1 (stereo not drawn)
inactive: [2] 93 % of control | [3] 93 % of control | [4] 97 % of control

CCOC(=O)C1=C(C)NC(=O)NN1C(=O)OCC
inactive: endpoint: mean survival time, dose: 12.5 mg/kg/injection, schedule: Q01DX009 (ip), vehicle: saline 94 % of control | endpoint: mean survival time, dose: 25.0 mg/kg/injection, schedule: Q01DX009 (ip), vehicle: saline 87 % of control | endpoint: mean survival time, dose: 50.0 mg/kg/injection, schedule: Q01DX009 (ip), vehicle: saline 94 % of control

COc1cc2c3c(c1)-c1c(ccc(OC)c1OC)CC3N(CCCl)CC2 (stereo not drawn)
inactive: endpoint: mean survival time, dose: 25.0 mg/kg/injection, schedule: Q04DX003 (ip), vehicle: water 98 % of control | endpoint: mean survival time, dose: 50.0 mg/kg/injection, schedule: Q04DX003 (ip), vehicle: water 105 % of control

COc1ccc(NC(=O)Oc2ccccc2-c2ccccc2)cc1
inactive: [2] 98 % of control | [3] 89 % of control | [4] 89 % of control

C/C(=N\NC(=O)c1ccccc1O)c1cccc(/C(C)=N/NC(=O)c2ccccc2O)n1
inactive: endpoint: median survival time, dose: 3.0 mg/kg/injection, schedule: Q01DX009 (ip), vehicle: saline 101 % of control | endpoint: median survival time, dose: 6.0 mg/kg/injection, schedule: Q01DX009 (ip), vehicle: saline 106 % of control | endpoint: median survival time, dose: 12.0 mg/kg/injection, schedule: Q01DX009 (ip), vehicle: saline 101 % of control | endpoint: median survival time, dose: 25.0 mg/kg/injection, schedule: Q01DX009 (ip), vehicle: saline 93 % of control

O=C(O)C(CSC(c1ccccc1)(c1ccccc1)c1ccccc1)NC(c1ccccc1)(c1ccccc1)c1ccccc1 (stereo not drawn)
inactive: endpoint: mean survival time, dose: 75.0 mg/kg/injection, schedule: Q01DX001 (ip), vehicle: other 97 % of control

O=C1c2ccccc2C(=O)n2nc3ccccc3c21
inactive: endpoint: median survival time, dose: 50.0 mg/kg/injection, schedule: Q04DX002 (ip), vehicle: saline with Tween-80 100 % of control | endpoint: median survival time, dose: 100.0 mg/kg/injection, schedule: Q04DX002 (ip), vehicle: saline with Tween-80 100 % of control | endpoint: median survival time, dose: 200.0 mg/kg/injection, schedule: Q04DX002 (ip), vehicle: saline with Tween-80 90 % of control | endpoint: median survival time, dose: 400.0 mg/kg/injection, schedule: Q04DX002 (ip), vehicle: saline with Tween-80 100 % of control

O=C(O)c1cc(F)ccc1Cl
inactive: [5] 97 % of control | [6] 86 % of control

CCO/N=C(\C)CSC1=NCCN1
inactive: endpoint: mean survival time, dose: 75.0 mg/kg/injection, schedule: Q04DX003 (ip), vehicle: saline 102 % of control | endpoint: mean survival time, dose: 150.0 mg/kg/injection, schedule: Q04DX003 (ip), vehicle: saline 100 % of control

CN(C)S(=O)(=O)Oc1cccc([N+](=O)[O-])c1
inactive: [7] 96 % of control

NC(=O)NC1CCCCCC1
inactive: [2] 102 % of control | [3] 109 % of control | [4] 100 % of control

O=C(OCCO)c1ccccc1
inactive: [2] 98 % of control | [7] 95 % of control | [3] 97 % of control | [8] 98 % of control | [4] 97 % of control | [9] 103 % of control

O=C1NCC(c2ccccc2)(C2CC2)O1 (stereo not drawn)
inactive: [5] 100 % of control | [6] 100 % of control | endpoint: mean survival time, dose: 400.0 mg/kg/injection, schedule: Q04DX002 (ip), vehicle: saline with Tween-80 100 % of control

CCCCCCCCCCCC[n+]1cccc2ccccc21
inactive: endpoint: mean survival time, dose: 0.35 mg/kg/injection, schedule: Q01DX009 (ip), vehicle: saline 106 % of control | endpoint: mean survival time, dose: 0.7 mg/kg/injection, schedule: Q01DX009 (ip), vehicle: saline 111 % of control | endpoint: mean survival time, dose: 1.4 mg/kg/injection, schedule: Q01DX009 (ip), vehicle: saline 117 % of control

COCCOCCN1CCN(CCCN2c3ccccc3Sc3ccc(C(F)(F)F)cc32)CC1
inactive: endpoint: mean survival time, dose: 37.5 mg/kg/injection, schedule: Q04DX003 (ip), vehicle: saline 113 % of control | endpoint: mean survival time, dose: 50.0 mg/kg/injection, schedule: Q04DX003 (ip), vehicle: saline 121 % of control

O=C(Nc1ccc(F)c(Cl)c1)Oc1ccc(OCc2ccccc2)cc1
inactive: endpoint: mean survival time, dose: 50.0 mg/kg/injection, schedule: Q01DX009 (ip), vehicle: Klucel (hydroxypropylcellulose) (HPC) 87 % of control | endpoint: mean survival time, dose: 100.0 mg/kg/injection, schedule: Q01DX009 (ip), vehicle: Klucel (hydroxypropylcellulose) (HPC) 98 % of control | endpoint: mean survival time, dose: 200.0 mg/kg/injection, schedule: Q01DX009 (ip), vehicle: Klucel (hydroxypropylcellulose) (HPC) 93 % of control

C/C(=C/c1ccccc1)C(O)C(=O)O (stereo not drawn)
inactive: endpoint: mean survival time, dose: 50.0 mg/kg/injection, schedule: Q04DX003 (ip), vehicle: Klucel (hydroxypropylcellulose) (HPC) 100 % of control | endpoint: mean survival time, dose: 200.0 mg/kg/injection, schedule: Q04DX003 (ip), vehicle: Klucel (hydroxypropylcellulose) (HPC) 100 % of control

CN(C)N=Nc1ccccc1C(=O)NNC(N)=S
inactive: endpoint: mean survival time, dose: 18.75 mg/kg/injection, schedule: Q01DX009 (ip), vehicle: Klucel (hydroxypropylcellulose) (HPC) 98 % of control and 103 % of control | endpoint: mean survival time, dose: 37.5 mg/kg/injection, schedule: Q01DX009 (ip), vehicle: Klucel (hydroxypropylcellulose) (HPC) 121 % of control and 101 % of control | endpoint: mean survival time, dose: 75.0 mg/kg/injection, schedule: Q01DX009 (ip), vehicle: Klucel (hydroxypropylcellulose) (HPC) 107 % of control and 109 % of control | endpoint: mean survival time, dose: 150.0 mg/kg/injection, schedule: Q01DX009 (ip), vehicle: Klucel (hydroxypropylcellulose) (HPC) 115 % of control and 116 % of control | endpoint: mean survival time, dose: 300.0 mg/kg/injection, schedule: Q01DX009 (ip), vehicle: Klucel (hydroxypropylcellulose) (HPC) 104 % of control and 107 % of control

N#CC1C(=N)Cc2ccccc2-c2ccccc21 (stereo not drawn)
inactive: [2] 96 % of control | [7] 108 % of control | [3] 93 % of control | [8] 101 % of control | [4] 106 % of control | [9] 101 % of control

Cc1ccc(S(=O)(=O)N/N=C\c2cccnc2)cc1
inactive: endpoint: mean survival time, dose: 12.5 mg/kg/injection, schedule: Q04DX003 (ip), vehicle: other 101 % of control | endpoint: mean survival time, dose: 25.0 mg/kg/injection, schedule: Q04DX003 (ip), vehicle: other 101 % of control | endpoint: mean survival time, dose: 50.0 mg/kg/injection, schedule: Q04DX003 (ip), vehicle: other 97 % of control | endpoint: mean survival time, dose: 100.0 mg/kg/injection, schedule: Q04DX003 (ip), vehicle: other 101 % of control | endpoint: mean survival time, dose: 200.0 mg/kg/injection, schedule: Q04DX003 (ip), vehicle: other 97 % of control | endpoint: mean survival time, dose: 400.0 mg/kg/injection, schedule: Q04DX003 (ip), vehicle: other 98 % of control

[Cu+2].[NH-]C1(C(=O)O)CCCC1.[NH-]C1(C(=O)O)CCCC1
inactive: endpoint: mean survival time, dose: 2.5 mg/kg/injection, schedule: Q01DX009 (ip), vehicle: saline with Tween-80 89 % of control | endpoint: mean survival time, dose: 5.0 mg/kg/injection, schedule: Q01DX009 (ip), vehicle: saline with Tween-80 100 % of control | endpoint: mean survival time, dose: 5.0 mg/kg/injection, schedule: Q04DX003 (ip), vehicle: saline 91 % of control | endpoint: mean survival time, dose: 10.0 mg/kg/injection, schedule: Q01DX009 (ip), vehicle: saline with Tween-80 94 % of control

CCCCC(CC)C(=O)[O][Sn]([CH2]CCC)([CH2]CCC)[O]C(=O)C(CC)CCCC (stereo not drawn)
inactive: endpoint: mean survival time, dose: 1.5 mg/kg/injection, schedule: Q01DX009 (ip), vehicle: saline with Tween-80 100 % of control | endpoint: mean survival time, dose: 3.0 mg/kg/injection, schedule: Q01DX009 (ip), vehicle: saline with Tween-80 100 % of control | endpoint: mean survival time, dose: 6.0 mg/kg/injection, schedule: Q01DX009 (ip), vehicle: saline with Tween-80 104 % of control | [1] 105 % of control

CCCCCC(C)(C)O
inactive: endpoint: mean survival time, dose: 100.0 mg/kg/injection, schedule: Q04DX003 (ip), vehicle: saline sonified 94 % of control | endpoint: mean survival time, dose: 200.0 mg/kg/injection, schedule: Q04DX003 (ip), vehicle: saline sonified 90 % of control | endpoint: mean survival time, dose: 400.0 mg/kg/injection, schedule: Q04DX003 (ip), vehicle: saline sonified 101 % of control
